Reference: patent US20230055582A1, “COMPOSITIONS AND METHODS FOR TREATMENT OF INFLAMMATORY CONDITIONS AND DISEASES OF THE SKIN” (priority 2020, published 2023)
“And” between values parts separate entries of the source, which are not always exact repeats. Identical values can stand only once.

How the values were obtained:
HaCaT cells [1] = test: Toxicity on HaCaT cells, qualitative light-microscope assessment after 50 hours; format: cell-based, human
Experimental: (§1) CBD, PEA and DB. CBD was purchased from Sigma Israel. […] CBD was 3.18 mM solution in ethanol. DB was in pure liquid form. PEA was in powder form.
Toxicity. HaCaT cells were incubated in 12 wells plates until 60-70% confluency was achieved. Subsequently, the cells were washed and incubated with medium containing PEA, DB or CBD. After 50 hours of incubation, the wells were observed under a light microscope and toxicity of the active compounds was assessed qualitatively by comparing the treated cells to controls incubated with vehicle. As concluded, under the conditions tested, PEA can be safely used in concentration of up to 50 μM, DB is non-toxic at concentrations of up to 0.01%, and CBD is non-toxic at concentration of up to 15 μM.

HaCaT cells [2] = test: Cell viability, crystal violet assay, poly I:C treated HaCaT cells; settings: for Cell viability increase: vs poly I:C alone; for Cell viability: 24 h
Experimental: (§2) Cell culture. The human keratinocyte cell line HaCaT was a kind gift from Prof. Joseph Kost (Department of Chemical Engineering, Ben-Gurion University of the Negev, Israel). Cells were cultured in Dulbecco's Modified Eagle Medium (DMEM) (Biological Industries, Kibbutz Beit-Haemek, Israel) supplemented with 1% antibiotic-antimycotic (Tivan Biotech, Kfar-Saba, Israel), 1mM sodium pyruvate, and 10% fetal bovine serum (FBS) (Biological Industries), and were maintained in an incubator with 5% CO2 at 37° C.
(§3) CBD was purchased from Sigma Israel. […] PEA was in powder form. A 30 mM stock solution was made by dissolving PEA in dimethyl sulfoxide (DMSO). […] All stocks were filtered using a 0.2 μm filter before use and further diluted to the required concentration in cell medium. Vehicle (control) solutions contained the corresponding amount of DMSO (0.007%).
90,000 cells/well were plated on 12-well plates and allowed to attach at 37° C. for 24 hours. Subsequently, the wells were washed with phosphate-buffered saline (PBS) and the medium was replaced with a medium containing either vehicle (control) or poly I:C. […] The wells were then incubated for further 24 h and 50μL samples were drawn for analysis of cytokines. Samples were frozen and shipped on dry ice.
Cell viability assay. Cell viability was measured using a crystal violet assay. 90,000 cells/well were plated on 12-well plates and allowed to attach at 37° C. for 24 hours. […] 24 hours later medium was aspirated, and cells were washed twice with PBS. 500 μL of crystal violet staining solution (0.5% (w/v) crystal violet powder, 20% methanol) was added to each well, followed by incubation for 30 min at room temperature. The staining solution was discarded, the plates were washed 5 times with distilled water and dried, and 500 μL of 10% acetic acid (v/v) was added to each well. Absorbance was measured at 595 nm.

GM-CSF = GM-CSF in medium of poly I:C treated HaCaT cells, multiplex immunoassay; format: cell-based, human; settings: 24 h
Experimental: as §1
(§4) Procedure and administration of active compounds. […] Samples were frozen and shipped on dry ice.
(§5) Analysis of cytokine content. Samples were shipped to Eve Technologies, Calgary (Canada) for analysis. Samples were analyzed using Human Focused 13-Plex Discovery Assay, a Multiplex immunoassay with fluorometric detection. Preliminary tests were conducted in order to determine samples dilution. The cytokines measured were granulocyte-macrophage colony-stimulating factor (GM-CSF), interferon gamma (IFNy), interleukin 1 beta (IL-1B), IL-2, IL-4, IL-5, IL-6, IL-8, IL-10, IL-12, IL-13, monocyte chemoattractant protein-1 (MCP-1) and tumor necrosis factor alpha (TNF-α). Results were calculated only for GM-CSF, IL-6, IL-8, MCP-1 and TNF-α.

IL-6 = IL-6 in medium of poly I:C treated HaCaT cells, multiplex immunoassay; format: cell-based, human; settings: 24 h
Experimental: (§6) CBD was purchased from Sigma Israel. […] PEA was in powder form.
(§7) Samples were frozen and shipped on dry ice.
as §5, with “(TNF-α).” for “(TNF-α). Results were calculated only for GM-CSF, IL-6, IL-8, MCP-1 and TNF-α.”

IL-8 = IL-8 in medium of poly I:C treated HaCaT cells, multiplex immunoassay; format: cell-based, human; settings: 24 h
Experimental: as §6, §7
as §5, with “(TNF-α).” for “(TNF-α). Results were calculated only for GM-CSF, IL-6, IL-8, MCP-1 and TNF-α.”

MCP-1 = MCP-1 in medium of poly I:C treated HaCaT cells, multiplex immunoassay; format: cell-based, human; settings: for MCP-1: 24 h
Experimental: as §1, §4, §5

TNF-α = TNF-α in medium of poly I:C treated HaCaT cells, multiplex immunoassay; format: cell-based, human; settings: 24 h
Experimental: as §1, §4, §5

[3] = tested on: GM-CSF, IL-6, IL-8, MCP-1 and TNF-α; test: Five inflammatory cytokines taken together, poly I:C treated HaCaT cells; format: cell-based, human; settings: higher dose (10 μM) with poly I:C 100 μg/mL
Experimental: as §2, §3
90,000 cells/well were plated on 12-well plates and allowed to attach at 37° C. for 24 hours. […]
Analysis of cytokine content. […] Samples were analyzed using Human Focused 13-Plex Discovery Assay, a Multiplex immunoassay with fluorometric detection. […] The cytokines measured were granulocyte-macrophage colony-stimulating factor (GM-CSF), interferon gamma (IFNy), interleukin 1 beta (IL-1B), IL-2, IL-4, IL-5, IL-6, IL-8, IL-10, IL-12, IL-13, monocyte chemoattractant protein-1 (MCP-1) and tumor necrosis factor alpha (TNF-α).

[4] = CBD 3 μM with poly I:C 100 μg/mL
[5] = CBD 3 μM with poly I:C 100 μg/mL, percent of poly I:C alone
[6] = CBD 10 μM with poly I:C 100 μg/mL
[7] = CBD 10 μM with poly I:C 100 μg/mL, percent of poly I:C alone
[8] = PEA 0.2 μM with poly I:C 100 μg/mL
[9] = PEA 2 μM with poly I:C 100 μg/mL
[10] = PEA 0.2 μM with poly I:C 100 μg/mL, percent of poly I:C alone
[11] = PEA 2 μM with poly I:C 100 μg/mL, percent of poly I:C alone
[12] = poly I:C 20 μg/mL, percent of control values
[13] = poly I:C 50 μg/mL, percent of control values
[14] = poly I:C 100 μg/mL, percent of control values

## C=C(C)[C@@H]1CCC(C)=C[C@H]1c1c(O)cc(CCCCC)cc1O [CBD, 2-[(1R,6R)-6-isopropenyl-3-methylcyclohex-2-en-1-yl]-5-pentylbenzene-1,3-diol]
HaCaT cells [1]; 5 μM, 50 hours
  Toxicity: non toxic
HaCaT cells [1]; 15 μM, 50 hours
  Toxicity: non toxic
HaCaT cells [1]; 45 μM, 50 hours
  Toxicity: very toxic
HaCaT cells [1]; HaCaT cells, 50 hours, under the conditions tested
  non-toxic (safely used) concentration: up to 15 μM
HaCaT cells [2]; 3 μM with poly I:C 100 μg/mL
  Cell viability increase: 5.5%
HaCaT cells [2]; 10 μM with poly I:C 100 μg/mL
  Cell viability increase: 15.3%
HaCaT cells [2]; [4]
  Cell viability: 1.328 O.D.
HaCaT cells [2]; [5]
  Cell viability: 105.50%
HaCaT cells [2]; [6]
  Cell viability: 1.451 O.D.
HaCaT cells [2]; [7]
  Cell viability: 115.29%
GM-CSF; [4]
  GM-CSF: 56.44 pg/mL
GM-CSF; [5]
  GM-CSF: 73.32%
GM-CSF; [6]
  GM-CSF: 49.55 pg/mL
GM-CSF; [7]
  GM-CSF: 64.37%
IL-6; [4]
  IL-6: 18.95 pg/mL
IL-6; [5]
  IL-6: 53.94% and 53.04%
IL-6; [6]
  IL-6: 12.15 pg/mL
IL-6; [7]
  IL-6: 34.57%
IL-8; [4]
  IL-8: 643.44 pg/mL
IL-8; [5]
  IL-8: 70.05%
IL-8; [6]
  IL-8: 335.44 pg/mL
IL-8; [7]
  IL-8: 36.52%
MCP-1; [4]
  MCP-1: 956.97 pg/mL and 945.97 pg/mL
MCP-1; [5]
  MCP-1: 54.77%
MCP-1; [6]
  MCP-1: 272.60 pg/mL
MCP-1; [7]
  MCP-1: 15.78%
TNF-α; [4]
  TNF-α: 3.277 pg/mL
TNF-α; [5]
  TNF-α: 50.64%
TNF-α; [6]
  TNF-α: 1.517 pg/mL
TNF-α; [7]
  TNF-α: 23.44%
[3]
  All cytokines measured reduced: 60-80%

## CCCCCCCCCCCCCCCC(=O)NCCO [PEA, palmitoylethanolamide]
HaCaT cells [1]; human, 50 h
  non-toxic (safely used) concentration: up to 50 μM
HaCaT cells [2]; [8]
  Cell viability: 1.443 O.D.
HaCaT cells [2]; [9]
  Cell viability: 1.413 O.D.
HaCaT cells [2]; human, 0.2 μM
  Cell viability: 114.66%
HaCaT cells [2]; human, 2 μM
  Cell viability: 112.28%
GM-CSF; [8]
  GM-CSF: 60.36 pg/mL
GM-CSF; [10]
  GM-CSF: 78.42%
GM-CSF; [9]
  GM-CSF: 57.54 pg/mL
GM-CSF; [11]
  GM-CSF: 74.75%
IL-6; [8]
  IL-6: 27.43 pg/mL
IL-6; [10]
  IL-6: 78.08%
IL-6; [9]
  IL-6: 27.23 pg/mL
IL-6; [11]
  IL-6: 77.49%
IL-8; [8]
  IL-8: 810.38 pg/mL
IL-8; [10]
  IL-8: 88.23%
IL-8; [9]
  IL-8: 773.38 pg/mL and 773.27 pg/mL
IL-8; [11]
  IL-8: 84.19%
MCP-1; [8]
  MCP-1: 1345.28 pg/mL
MCP-1; [10]
  MCP-1: 77.88%
MCP-1; [9]
  MCP-1: 1554.20 pg/mL
MCP-1; [11]
  MCP-1: 89.98%
TNF-α; [8]
  TNF-α: 4.673 pg/mL
TNF-α; [10]
  TNF-α: 72.23%
TNF-α; [9]
  TNF-α: 4.470 pg/mL
TNF-α; [11]
  TNF-α: 69.09%

## polyinosinic:polycytidylic acid [Poly I:C]
HaCaT cells [2]; poly I:C 20 μg/mL alone
  Cell viability: 1.827 O.D.
HaCaT cells [2]; poly I:C 50 μg/mL alone
  Cell viability: 1.714 O.D.
HaCaT cells [2]; poly I:C 100 μg/mL alone
  Cell viability: 1.259 O.D.
GM-CSF; poly I:C 20 μg/mL alone
  GM-CSF: 53.09 pg/mL
GM-CSF; [12]
  GM-CSF: 266.74%
GM-CSF; poly I:C 50 μg/mL alone
  GM-CSF: 62.68 pg/mL
GM-CSF; [13]
  GM-CSF: 314.94%
GM-CSF; poly I:C 100 μg/mL alone
  GM-CSF: 76.98 pg/mL
GM-CSF; [14]
  GM-CSF: 386.75%
IL-6; poly I:C 20 μg/mL alone
  IL-6: 14.07 pg/mL
IL-6; [12]
  IL-6: 523.57%
IL-6; poly I:C 50 μg/mL alone
  IL-6: 19.50 pg/mL
IL-6; [13]
  IL-6: 725.81%
IL-6; poly I:C 100 μg/mL alone
  IL-6: 35.14 pg/mL
IL-6; [14]
  IL-6: 1307.82%
IL-8; poly I:C 20 μg/mL alone
  IL-8: 657.01 pg/mL
IL-8; [12]
  IL-8: 330.64%
IL-8; poly I:C 50 μg/mL alone
  IL-8: 729.48 pg/mL
IL-8; [13]
  IL-8: 367.11%
IL-8; poly I:C 100 μg/mL alone
  IL-8: 918.50 pg/mL
IL-8; [14]
  IL-8: 462.24%
MCP-1; poly I:C 20 μg/mL alone
  MCP-1: 369.54 pg/mL
MCP-1; [12]
  MCP-1: 704.95%
MCP-1; poly I:C 50 μg/mL alone
  MCP-1: 711.76 pg/mL
MCP-1; [13]
  MCP-1: 1357.80%
MCP-1; poly I:C 100 μg/mL alone
  MCP-1: 1727.32 pg/mL
MCP-1; [14]
  MCP-1: 3295.15%
MCP-1; poly I:C 100 μg/mL, vs control
  increase in cytokine concentration, MCP-1: up to 33 fold
TNF-α; poly I:C 20 μg/mL alone
  TNF-α: 2.74 pg/mL
TNF-α; poly I:C 20 μg/mL, percent of control values, control below the standard curve
  TNF-α: 846.39%
TNF-α; poly I:C 50 μg/mL alone
  TNF-α: 3.81 pg/mL
TNF-α; poly I:C 50 μg/mL, percent of control values, control below the standard curve
  TNF-α: 1179.38%
TNF-α; poly I:C 100 μg/mL alone
  TNF-α: 6.47 pg/mL and 6.470 pg/mL
TNF-α; poly I:C 100 μg/mL, percent of control values, control below the standard curve
  TNF-α: 2001.03%
